Laboratory results from patent US20090298752A1, “APLIDINE TREATMENT OF CANCERS” (PHARMA MAR, S.A., priority 1999, published 2009).

Assay: Phase I, 1 h daily infusion x5 q3wk: toxicity and pharmacokinetics
Assay type: in vivo, human
Experimental: The objectives are to determine the Maximum Tolerated Dose, the Dose Limiting Toxicity (DLT), the pharmacokinetics (PK) and the recommended dose for phase 2 studies that can be given in a daily 1 hour IV infusion×5 days q 3 weeks. Patients with solid tumours and low and intermediate grade Non-Hodgkin's Lymphomas were eligible. The daily starting dose of aplidine was 80 μg/m^2. Cohorts of 3 patients (pts) are treated at each level with dose escalation according to toxicity, 20 patients were treated with 6 dose levels ranging from 80 μg-720 μg/m^2, 1 patient is presently at the dose of 960 μg/m^2. At total of 48 cycles were administered. Non-haematological toxicities were grade 1 and 2 with fatigue reported in most pts. Grade 1 hypersensitivity reactions were documented in 7 patients. Other toxicities included nausea, anorexia, diarrhoea, and anxiety. […] PK analysis was performed in treatment course 1. Aplidine concentrations were analysed by LC tandem mass spectrography. […] Potentially therapeutic plasma concentrations ([…]) were achieved. […] Accrual is ongoing at 960 μg/m^2.

Question: Which DLT (80-960 μg/m^2 daily x5) does the source give for aplidine here?
Answer: no DLT has been documented

Question: What about the “Bilirubin Grade 1” value (DL 1, 80 ug/m^2) of the same substance?
Answer: 1

Question: And the “Diarrhoea Grade 1” value (DL 1, 80 ug/m^2)?
Answer: 1

Question: What about the “Fatigue Grade 1” value (DL 1, 80 ug/m^2) of the same substance?
Answer: 1

Question: What about the “Fatigue Grade 2” value (DL 1, 80 ug/m^2) of the same substance?
Answer: 2

Question: What about the “Fever Grade 1” value (DL 1, 80 ug/m^2) of the same substance?
Answer: 1

Question: What about the “Fever Grade 2” value (DL 1, 80 ug/m^2) of the same substance?
Answer: 1

Question: What about the “Haemoglobin Grade 1” value (DL 1, 80 ug/m^2) of the same substance?
Answer: 1

Question: And the “Haemoglobin Grade 2” value (DL 1, 80 ug/m^2)?
Answer: 2

Question: What about the “Hyper-sensitivity Grade 1” value (DL 1, 80 ug/m^2) of the same substance?
Answer: 1

Question: And the “Hyper-sensitivity Grade 2” value (DL 1, 80 ug/m^2)?
Answer: 1

Question: And the “Motor neuropathy Grade 1” value (DL 1, 80 ug/m^2)?
Answer: 3

Question: What about the “Motor neuropathy Grade 2” value (DL 1, 80 ug/m^2) of the same substance?
Answer: 2

Question: What about the “Myalgia/weakness Grade 2” value (DL 1, 80 ug/m^2) of the same substance?
Answer: 1

Question: What about the “Nausea Grade 1” value (DL 1, 80 ug/m^2) of the same substance?
Answer: 2

Question: What about the “SGOT Grade 1” value (DL 1, 80 ug/m^2) of the same substance?
Answer: 1

Question: What about the “Sensory neuropathy Grade 1” value (DL 1, 80 ug/m^2) of the same substance?
Answer: 2

Question: And the “Sensory neuropathy Grade 2” value (DL 1, 80 ug/m^2)?
Answer: 1

Question: And the “Haemoglobin Grade 3” value (DL 1, 80 ug/m^2, doubtful)?
Answer: 3

Question: And the “Diarrhoea Grade 1” value (DL 2, 120 ug/m^2)?
Answer: 2

Question: What about the “Fatigue Grade 1” value (DL 2, 120 ug/m^2) of the same substance?
Answer: 3

Question: And the “Haemoglobin Grade 1” value (DL 2, 120 ug/m^2)?
Answer: 2

Question: And the “Hyper-sensitivity Grade 1” value (DL 2, 120 ug/m^2)?
Answer: 1

Question: What about the “Nausea Grade 1” value (DL 2, 120 ug/m^2) of the same substance?
Answer: 1

Question: What about the “SGOT Grade 1” value (DL 2, 120 ug/m^2) of the same substance?
Answer: 1

Question: What about the “Sensory neuropathy Grade 1” value (DL 2, 120 ug/m^2) of the same substance?
Answer: 2

Question: And the “Granulocytes Grade 2” value (DL 2, 120 ug/m^2, doubtful)?
Answer: 1

Question: And the “Haemoglobin Grade 3” value (DL 2, 120 ug/m^2, doubtful)?
Answer: 1

Question: And the “Haemoglobin Grade 4” value (DL 2, 120 ug/m^2, doubtful)?
Answer: 2

Question: What about the “CPK Grade 4” value (DL 3, 240 ug/m^2) of the same substance?
Answer: 1

Question: What about the “Creatinine Grade 1” value (DL 3, 240 ug/m^2) of the same substance?
Answer: 2

Question: What about the “Diarrhoea Grade 2” value (DL 3, 240 ug/m^2) of the same substance?
Answer: 2

Question: What about the “Fatigue Grade 1” value (DL 3, 240 ug/m^2) of the same substance?
Answer: 1

Question: What about the “Fatigue Grade 2” value (DL 3, 240 ug/m^2) of the same substance?
Answer: 1

Question: What about the “Fatigue Grade 3” value (DL 3, 240 ug/m^2) of the same substance?
Answer: 1

Question: What about the “Haemoglobin Grade 1” value (DL 3, 240 ug/m^2) of the same substance?
Answer: 1

Question: What about the “Haemoglobin Grade 2” value (DL 3, 240 ug/m^2) of the same substance?
Answer: 1

Question: And the “Myalgia/weakness Grade 1” value (DL 3, 240 ug/m^2)?
Answer: 1

Question: What about the “Nausea Grade 1” value (DL 3, 240 ug/m^2) of the same substance?
Answer: 2

Question: And the “Nausea Grade 2” value (DL 3, 240 ug/m^2)?
Answer: 1

Question: What about the “SGOT Grade 1” value (DL 3, 240 ug/m^2) of the same substance?
Answer: 2

Question: What about the “Sensory neuropathy Grade 1” value (DL 3, 240 ug/m^2) of the same substance?
Answer: 1

Question: And the “Granulocytes Grade 1” value (DL 3, 240 ug/m^2, doubtful)?
Answer: 1

Question: And the “Granulocytes Grade 2” value (DL 3, 240 ug/m^2, doubtful)?
Answer: 2

Question: What about the “Haemoglobin Grade 4” value (DL 3, 240 ug/m^2, doubtful) of the same substance?
Answer: 2

Question: And the “Creatinine Grade 1” value (DL 4, 360 ug/m^2)?
Answer: 1

Question: And the “Diarrhoea Grade 1” value (DL 4, 360 ug/m^2)?
Answer: 1

Question: And the “Fatigue Grade 2” value (DL 4, 360 ug/m^2)?
Answer: 3

Question: And the “Fever Grade 1” value (DL 4, 360 ug/m^2)?
Answer: 1

Question: And the “Haemoglobin Grade 1” value (DL 4, 360 ug/m^2)?
Answer: 2

Question: What about the “Haemoglobin Grade 2” value (DL 4, 360 ug/m^2) of the same substance?
Answer: 2

Question: And the “Hyper-sensitivity Grade 1” value (DL 4, 360 ug/m^2)?
Answer: 1

Question: And the “Hyper-sensitivity Grade 2” value (DL 4, 360 ug/m^2)?
Answer: 1

Question: What about the “Motor neuropathy Grade 1” value (DL 4, 360 ug/m^2) of the same substance?
Answer: 1

Question: And the “Nausea Grade 1” value (DL 4, 360 ug/m^2)?
Answer: 1

Question: And the “Nausea Grade 3” value (DL 4, 360 ug/m^2)?
Answer: 1

Question: And the “SGOT Grade 1” value (DL 4, 360 ug/m^2)?
Answer: 2

Question: And the “Sensory neuropathy Grade 1” value (DL 4, 360 ug/m^2)?
Answer: 1

Question: And the “Sensory neuropathy Grade 2” value (DL 4, 360 ug/m^2)?
Answer: 1

Question: What about the “Granulocytes Grade 1” value (DL 4, 360 ug/m^2, doubtful) of the same substance?
Answer: 1

Question: And the “Haemoglobin Grade 3” value (DL 4, 360 ug/m^2, doubtful)?
Answer: 1

Question: What about the “Haemoglobin Grade 4” value (DL 4, 360 ug/m^2, doubtful) of the same substance?
Answer: 2

Question: What about the “CPK Grade 1” value (DL 5, 540 ug/m^2) of the same substance?
Answer: 1

Question: And the “Diarrhoea Grade 1” value (DL 5, 540 ug/m^2)?
Answer: 2

Question: What about the “Fatigue Grade 2” value (DL 5, 540 ug/m^2) of the same substance?
Answer: 2

Question: And the “Fatigue Grade 3” value (DL 5, 540 ug/m^2)?
Answer: 1

Question: And the “Fever Grade 2” value (DL 5, 540 ug/m^2)?
Answer: 1

Question: And the “Haemoglobin Grade 1” value (DL 5, 540 ug/m^2)?
Answer: 1

Question: What about the “Haemoglobin Grade 2” value (DL 5, 540 ug/m^2) of the same substance?
Answer: 1

Question: And the “Hyper-sensitivity Grade 1” value (DL 5, 540 ug/m^2)?
Answer: 1

Question: And the “Motor neuropathy Grade 1” value (DL 5, 540 ug/m^2)?
Answer: 1

Question: What about the “Motor neuropathy Grade 2” value (DL 5, 540 ug/m^2) of the same substance?
Answer: 1

Question: And the “Myalgia/weakness Grade 1” value (DL 5, 540 ug/m^2)?
Answer: 1

Question: What about the “Nausea Grade 1” value (DL 5, 540 ug/m^2) of the same substance?
Answer: 2

Question: What about the “Nausea Grade 3” value (DL 5, 540 ug/m^2) of the same substance?
Answer: 1

Question: And the “SGOT Grade 1” value (DL 5, 540 ug/m^2)?
Answer: 2

Question: And the “Sensory neuropathy Grade 1” value (DL 5, 540 ug/m^2)?
Answer: 2

Question: And the “Sensory neuropathy Grade 2” value (DL 5, 540 ug/m^2)?
Answer: 1

Question: What about the “Granulocytes Grade 1” value (DL 5, 540 ug/m^2, doubtful) of the same substance?
Answer: 1

Question: And the “Haemoglobin Grade 4” value (DL 5, 540 ug/m^2, doubtful)?
Answer: 2

Question: And the “Bilirubin Grade 1” value (DL 6, 720 ug/m^2)?
Answer: 1

Question: What about the “CPK Grade 1” value (DL 6, 720 ug/m^2) of the same substance?
Answer: 1

Question: What about the “Diarrhoea Grade 1” value (DL 6, 720 ug/m^2) of the same substance?
Answer: 1

Question: What about the “Fatigue Grade 1” value (DL 6, 720 ug/m^2) of the same substance?
Answer: 1

Question: What about the “Fatigue Grade 4” value (DL 6, 720 ug/m^2) of the same substance?
Answer: 1

Question: And the “Fever Grade 1” value (DL 6, 720 ug/m^2)?
Answer: 1

Question: What about the “Haemoglobin Grade 2” value (DL 6, 720 ug/m^2) of the same substance?
Answer: 2

Question: What about the “Hyper-sensitivity Grade 3” value (DL 6, 720 ug/m^2) of the same substance?
Answer: 1

Question: And the “Motor neuropathy Grade 3” value (DL 6, 720 ug/m^2)?
Answer: 1

Question: What about the “Myalgia/weakness Grade 4” value (DL 6, 720 ug/m^2) of the same substance?
Answer: 1

Question: And the “Nausea Grade 1” value (DL 6, 720 ug/m^2)?
Answer: 3

Question: And the “SGOT Grade 1” value (DL 6, 720 ug/m^2)?
Answer: 2

Question: And the “Sensory neuropathy Grade 1” value (DL 6, 720 ug/m^2)?
Answer: 1

Question: What about the “Haemoglobin Grade 3” value (DL 6, 720 ug/m^2, doubtful) of the same substance?
Answer: 2

Question: And the “Haemoglobin Grade 4” value (DL 6, 720 ug/m^2, doubtful)?
Answer: 2

Question: What about the “Fatigue Grade 2” value (DL 7, 960 ug/m^2) of the same substance?
Answer: 2

Question: And the “Haemoglobin Grade 2” value (DL 7, 960 ug/m^2)?
Answer: 2

Question: What about the “Nausea Grade 1” value (DL 7, 960 ug/m^2) of the same substance?
Answer: 1

Question: And the “Nausea Grade 2” value (DL 7, 960 ug/m^2)?
Answer: 1

Question: What about the “Sensory neuropathy Grade 1” value (DL 7, 960 ug/m^2) of the same substance?
Answer: 1

Question: And the “Granulocytes Grade 1” value (DL 7, 960 ug/m^2, doubtful)?
Answer: 1

Question: And the “Haemoglobin Grade 4” value (DL 7, 960 ug/m^2, doubtful)?
Answer: 1

Question: And the haematological toxicities (Example 10)?
Answer: no haematological toxicities

Question: And the plasma concentrations achieved (Example 10)?
Answer: > 1000 ng/mL

Question: What about the “Grade 1 hypersensitivity reactions” value (Example 10, 20 patients) of the same substance?
Answer: 7 patients

Question: And the neuropathy or myopathy (Example 16)?
Answer: No clear evidence of neuropathy or myopathy

Question: And the “total body / plasma clearance” value (median)?
Answer: 0.38 L/min
